“And” between values parts separate entries of the source, which are not always exact repeats. Equal entries are not always repeated. Where two headings read alike, the source gives them in different places.
Legend:
rat TRPA1 [1] = target: T1, rat TRPA1 (Rattus norvegicus, UniProt Q6RI86); assay: rat TRPA1-mediated elevation of intracellular Ca2+ (Fluo-4) in transfected HEK-293 cells, agonist mode; assay type: cell-based; details: for Efficacy (%AITC 100μM): TRPA1, percentage of the effect on [Ca2+]i observed with 100 μM allylisothiocyanate (AITC); for Efficacy (%AITC 100μM) / EC50: rTRPA1-HEK-293 cells; for activity on TRPA1 channel (result in words): in vitro assays on TRPA1; for EC50: Potency EC50, TRPA1, concentration producing half-maximal increase in [Ca2+]i
T1 construct: expressed in transfected cells; host or cells: HEK-293 cells, stably transfected
T1 sequence (Q6RI86 whole entry): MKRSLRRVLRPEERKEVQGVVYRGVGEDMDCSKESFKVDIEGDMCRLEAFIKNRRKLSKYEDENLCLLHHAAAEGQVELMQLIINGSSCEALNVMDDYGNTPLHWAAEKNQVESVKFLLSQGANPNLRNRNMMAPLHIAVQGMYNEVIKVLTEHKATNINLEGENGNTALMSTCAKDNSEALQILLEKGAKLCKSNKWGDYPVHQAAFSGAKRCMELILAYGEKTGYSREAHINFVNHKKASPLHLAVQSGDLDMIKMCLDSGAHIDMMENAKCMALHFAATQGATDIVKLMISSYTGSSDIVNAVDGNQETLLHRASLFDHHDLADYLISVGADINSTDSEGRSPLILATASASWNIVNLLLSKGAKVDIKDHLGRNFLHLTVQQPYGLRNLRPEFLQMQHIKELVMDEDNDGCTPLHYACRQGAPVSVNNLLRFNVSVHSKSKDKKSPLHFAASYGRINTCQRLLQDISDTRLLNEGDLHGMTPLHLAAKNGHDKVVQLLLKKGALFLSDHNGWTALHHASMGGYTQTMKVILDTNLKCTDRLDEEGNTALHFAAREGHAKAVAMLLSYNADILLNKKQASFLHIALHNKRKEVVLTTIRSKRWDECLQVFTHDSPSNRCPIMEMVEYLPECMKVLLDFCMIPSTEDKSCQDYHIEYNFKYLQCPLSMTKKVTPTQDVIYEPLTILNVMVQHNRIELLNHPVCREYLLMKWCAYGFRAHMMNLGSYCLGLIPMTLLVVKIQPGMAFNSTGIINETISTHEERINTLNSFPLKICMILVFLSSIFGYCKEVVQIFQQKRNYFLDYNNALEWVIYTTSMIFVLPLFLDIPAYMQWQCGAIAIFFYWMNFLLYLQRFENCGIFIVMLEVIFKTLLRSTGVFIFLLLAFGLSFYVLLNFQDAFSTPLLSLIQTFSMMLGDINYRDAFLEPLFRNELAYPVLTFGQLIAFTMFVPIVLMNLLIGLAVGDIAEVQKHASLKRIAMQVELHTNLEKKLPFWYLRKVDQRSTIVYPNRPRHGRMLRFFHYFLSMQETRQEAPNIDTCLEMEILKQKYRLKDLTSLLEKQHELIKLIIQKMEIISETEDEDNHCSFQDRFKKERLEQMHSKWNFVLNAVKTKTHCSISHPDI
Experimental: (§1) Compound effects on intracellular Ca^2+ concentration ([Ca^2+]i) were determined using the selective intracellular fluorescent probe Fluo-4. Assays of the rat TRPA1-mediated elevation of intracellular Ca^2+ in transfected HEK-293 cells were performed as described. Briefly, human embryonic kidney (HEK-293) cells (stably transfected with rat TRPA1 or not transfected) were cultured in EMEM + 2 mM Glutamine + 1 % non-essential amino acids (NEAA) + 10 % FBS and maintained at 37 °C with 5 % CO2. On the day of the experiment, the cells were loaded with Fluo-4 AM (4 μM) for 1 h at room temperature, rinsed and resuspended in Tyrode’s solution (145 mM NaCl, 2.5 mM KCl, 1.5 mM CaCl2, 1.2 mM MgCl2, 10 mM d-glucose, and 10 mM HEPES, pH 7.4), and finally transferred to a quartz cuvette of a spectrofluorimeter (Perkin-Elmer LS50B, Perkin Elmer Inc, Buckinghamshire, UK); λEX = 488 nm, λEM = 516 nm) equipped with a PTP-1 Fluorescence Peltier System (PerkinElmer Life and Analytical Sciences, Waltham, MA, USA) under continuous stirring. Cell fluorescence before and after the addition of various concentrations of test compounds was measured, normalizing the effects against the response to ionomycin (4 µM). The values of the effect on [Ca^2+]i in not-transfected HEK-293 cells were used as a baseline and subtracted from the values obtained from transfected cells. Agonist efficacy was expressed as a percentage of the effect on [Ca^2+]i observed with 100 μM allylisothiocyanate (AITC). The potency of the compounds (EC50 values) was determined as the concentration required to produce half-maximal increases in [Ca^2+]i. Antagonist/desensitizing behavior as evaluated against TRPA1 agonist AITC 100 μM by adding the compound directly into the quartz cuvette 5 min before the stimulation of cells with the agonist. IC50 is expressed as the concentration exerting a half-maximal inhibition of an agonist effect, taking as 100% the effect on [Ca^2+]i exerted by the agonist alone. Dose–response curves are fitted by a sigmoidal regression with a variable slope. Curve fitting and parameter estimation were performed with a GraphPad Prism (GraphPad Software Inc., San Diego, CA). Three independent experiments were done for each determination; all determinations were performed at least in triplicate. The time-course spectra showing the increase of intracellular Ca^2+ upon application of the compounds are available in Supplementary Material (S10).

rat TRPA1 [2] = target: T1, rat TRPA1; assay: Antagonist/desensitizing behavior against AITC 100 μM in rTRPA1-HEK-293 cells (5 min pre-incubation); assay type: cell-based
Experimental: as §1

[3] = test system: not-transfected HEK cells; assay: Intracellular Ca2+ elevation in not-transfected HEK-293 cells; assay type: cell-based, human; details: compound at 100 μM
Experimental: Compound effects on intracellular Ca^2+ concentration ([Ca^2+]i) were determined using the selective intracellular fluorescent probe Fluo-4. Assays of the rat TRPA1-mediated elevation of intracellular Ca^2+ in transfected HEK-293 cells were performed as described. Briefly, human embryonic kidney (HEK-293) cells (stably transfected with rat TRPA1 or not transfected) were cultured in EMEM + 2 mM Glutamine + 1 % non-essential amino acids (NEAA) + 10 % FBS and maintained at 37 °C with 5 % CO2. On the day of the experiment, the cells were loaded with Fluo-4 AM (4 μM) for 1 h at room temperature, rinsed and resuspended in Tyrode’s solution (145 mM NaCl, 2.5 mM KCl, 1.5 mM CaCl2, 1.2 mM MgCl2, 10 mM d-glucose, and 10 mM HEPES, pH 7.4), and finally transferred to a quartz cuvette of a spectrofluorimeter (Perkin-Elmer LS50B, Perkin Elmer Inc, Buckinghamshire, UK); λEX = 488 nm, λEM = 516 nm) equipped with a PTP-1 Fluorescence Peltier System (PerkinElmer Life and Analytical Sciences, Waltham, MA, USA) under continuous stirring. Cell fluorescence before and after the addition of various concentrations of test compounds was measured, normalizing the effects against the response to ionomycin (4 µM). […] Agonist efficacy was expressed as a percentage of the effect on [Ca^2+]i observed with 100 μM allylisothiocyanate (AITC). […]

activity on TRPA1 channel (result in words) (rat TRPA1 [1]; listed as glucoputranjivin) | SMILES | Efficacy (%AITC 100μM) (rat TRPA1 [1]) | activity on TRPA1 channel (result in words) (rat TRPA1 [1]) | activity on TRPA1 channel (result in words) (rat TRPA1 [1]; listed as sinigrin) | IC50 (rat TRPA1 [2]) [µM] | IC50 (rat TRPA1 [2]; compound added 5 min before stimulation with AITC 100 μM, rTRPA1-HEK-293 cells, read-out: IC50 Inhibition TRPA1 (AITC 100μM)) [µM] | EC50 (rat TRPA1 [1]) [µM] | activity (elevation of internal Ca2+) on not-transfected HEK cells [3]
 | C=CCC(=NOS(=O)(=O)O)S[C@@H]1O[C@H](CO)[C@@H](O)[C@H](O)[C@H]1O (stereo in doubt) [Compound 5, sinigrin, reference compound] | <10% | ineffective | inactive | > 100 |  |  | 
inactive | CC(C)/C(=N/OS(=O)(=O)O)S[C@@H]1O[C@H](CO)[C@@H](O)[C@H](O)[C@H]1O [Compound 1, glucoputranjivin] | <10% | ineffective |  |  | > 100 |  | 
 | CC(C)N=C=S [Compound 2, isopropylisothiocyanate] | 108.8% and 108.8 ± 1.6% |  |  | 10.8 ± 0.4 |  | 5.9 ± 0.4 | less than 1%
 | CCC(C)N=C=S (stereo not shown) [Compound 4, 2-butylisothiocyanate] | 98.0% and 98.0 ± 1.0% |  |  | 12.1 ± 0.2 |  | 4.9 ± 0.2 | less than 1%

— article PMC6429275, “Isothiocyanates and Glucosinolates from Sisymbrium officinale (L.) Scop. (“the Singers’ Plant”): Isolation and in Vitro Assays on the Somatosensory and Pain Receptor TRPA1 Channel” (Molecules, 2019)
